Test results reported in patent US8012945B2, “Phage antibodies to radiation-inducible neoantigens” (Vanderbilt University, priority 2001, dated 2011).

Experiments:
[1] = test system: irradiated tumors (LLC and GL261); experiment: In vivo screening of T7 phage peptide library, LLC and GL261 tumors pooled; parameters: species or system mice; details: for Frequency of Recovery: conserved motifs within peptides identified by in vivo screening
Experimental: GL261 murine glioma cells and Lewis lung carcinoma cells were implanted into the hind limb of C57BL6 mice (Hallahan et al., 1995b; Hallahan et al., 1998; Hallahan & Virudachalam, 1999).
For in vivo screening, tumors were irradiated with 3 Gy and approximately 10^10 phage (prepared as described in Example 4) were administered by tail vein injection into each of the tumor bearing mice at 4 hours following irradiation. Tumors were recovered at one hour following injection and amplified in BL21 bacteria. Amplified phage were pooled and re-administered to a tumor-bearing mouse following tumor irradiation. The phage pool was sequentially administered to a total of 6 animals. As a control, wild type phage lacking synthetic peptide inserts were identically administered to a second experimental group of animals.
To determine the titer of phage binding in a tumor or in normal tissue, recovered phage were amplified in BL21 bacteria. Bacteria were plated and the number of plaques present were counted. To determine the total phage output per organ, the number of plaque forming units (PFU) on each plate was divided by the volume of phage plated and the weight of each organ.
An individual phage suspension was used as template. Amplified peptides were sequenced using an ABI PRISM 377 sequencer (PE Biosystems, Foster City, Calif., United States of America).

[2] = test system: LLC tumors; experiment: In vivo screening of T7 phage peptide library, irradiated LLC tumors; parameters: species or system mice; details: 3 Gy, 6 rounds of in vivo screening; for Number of Phage Recovered from LLC tumors: randomly selected phage
Experimental: (§1) A population of DNA fragments encoding recombinant peptide sequences was cloned into the T7 […] vector (Novagen, Madison, Wis., United States of America). […] The resulting reading frame requires an AAT initial codon followed by a TCX codon. The molar ratio between insert and vector was 1:1. Size-fractionated cDNA inserts were prepared by gel filtration on sepharose 4B and ranged from 27 base pairs to 33 base pairs. cDNAs were ligated by use of the DNA ligation kit (Novagen, Madison, Wis., United States of America). Recombinant T7 DNA was packaged according to the manufacturer's instructions and amplified prior to bioscreening in animal tumor models. […] GL261 murine glioma cells and Lewis lung carcinoma cells were implanted into the hind limb of C57BL6 mice ([…] et al., 1995[…] et al., 1998; […], 1999). […] Tumors were recovered at one hour following injection and amplified in BL21 bacteria. Amplified phage were pooled and re-administered to a tumor-bearing mouse following tumor irradiation. The phage pool was sequentially administered to a total of 6 animals. […] To determine the titer of phage binding in a tumor or in normal tissue, recovered phage were amplified in BL21 bacteria. Bacteria were plated and the number of plaques present were counted. To determine the total phage output per organ, the number of plaque forming units (PFU) on each plate was divided by the volume of phage plated and the weight of each organ. […] Following 6 rounds of in vivo screening, fifty recombinant phage peptides that bound within irradiated tumors were randomly selected for further analysis. The nucleic acid sequence encoding recombinant phage was amplified by PCR using primers set forth as SEQ ID NOs: 14-15 (available from Novagen, Madison, Wis., United States of America). An individual phage suspension was used as template. Amplified peptides were sequenced using an ABI PRISM 377 sequencer (PE Biosystems, Foster City, Calif., United States of America).

[3] = test system: GL261 tumors; experiment: In vivo screening of T7 phage peptide library, irradiated GL261 tumors; parameters: species or system mice; details: 3 Gy, 6 rounds of in vivo screening; for Number of Phage Recovered from GL261 tumors: randomly selected phage
Experimental: as §1

[4] = test system: melanoma, lung carcinoma, and glioma tumor models; experiment: Binding of peptide-encoding phage in additional tumor models; format: in vivo, mice; details: B16F0 melanoma, Lewis lung carcinoma, GL261 glioma
Description: The binding properties of phage encoding […] (SEQ ID NO: 1), […] (SEQ ID NO: 2), […] (SEQ ID NO: 3), and NSVGSRV (SEQ ID NO: 4) were additionally characterized in a B16F0 melanoma model.

[5] = test system: P-selectin and platelet membrane glycoprotein IIB; experiment: Screening of phage-displayed scFv library on immobilized neoantigens, Western immunoblot, then in vivo screening of irradiated tumors; format: binding; details: recovered following in vivo screening to irradiated tumors
Experimental: A phage library comprising diverse single chain antibodies was prepared in M13 phage. Briefly, nucleotide sequences encoding antibody VL and VH regions separated by a (Gly4Ser)3 linker were fused to M13 gene III nucleotide sequences. When a recombinant M13 carrying these antibody-gene III fusions infects an appropriate host bacterium, the host produces recombinant M13 phage that display scFv antibody polypeptides (VL-linker-VH) fused to gene III protein.
The phage library was exposed to the radiation-inducible neoantigens P-selectin (also called CD62P; GENBANK™ Accession No. P98109) and/or platelet membrane glycoprotein IIB (also called CD41; GENBANK™ Accession No. P08514) immobilized on glass slides. Phage were selected based on antigen binding, and selected phage were pooled as a biased library. For representative in vitro screening methods, see Fowlkes et al., 1992; Haaparanta & Huse, 1995; Jung & Pluckthun, 1997; Peter et al., 2000; Holzem et al., 2001; Chiu et al., 2000.
Phage identified by in vitro screening were tested on Western immunoblots to confirm binding to the P-selection and platelet membrane glycoprotein IIB neoantigens. Phage that specifically bound P-selectin and platelet membrane glycoprotein IIB were subsequently used for in vivo screening of irradiated tumors as described in Example 5. Wild type phage were used as internal controls. Antibodies having substantial affinity for irradiated tumors were identified by observing an increased number of phage in the irradiated tumor when compared to a number of phage in a control organ (e.g., liver and lung). Phage antibodies with the greatest affinity for tumors were identified using the formula: number of phage in irradiated tumor/number of phage in each organ.

## GSRV (Artificial peptide ligand number 7)
[1]; mouse, in vivo
  share of peptide sequences recovered from 6 irradiated tumors having the subsequence: 4%

## GSSV (Artificial peptide ligand number 13)
[1]
  Frequency of Recovery: 56%
[1]; mouse, in vivo
  phage recovered from irradiated tumors: 22-40 of 10^6 injected phage
  share of peptide sequences recovered from 6 irradiated tumors having the subsequence: 56%

## GSXV [conserved motif within recovered peptides]
[1]
  Frequency of Recovery: 78%

## NHVGGSSV (Artifical peptide ligand number 1)
[2]
  Phage Recovered from LLC tumors (Frequency): 28%
  Number of Phage Recovered from LLC tumors: 7
[3]
  Phage Recovered from GL261 tumors (Frequency): 48%
  Number of Phage Recovered from GL261 tumors: 12
[4]
  binding of phage encoding the peptide within tumor models: bound within the melanoma, lung carcinoma, and glioma tumor models

## NSLRGDGSSV (phage-displayed; Artificial peptide ligand number 2)
[2]
  Phage Recovered from LLC tumors (Frequency): 28%
  Number of Phage Recovered from LLC tumors: 7
[3]
  Phage Recovered from GL261 tumors (Frequency): 8%
  Number of Phage Recovered from GL261 tumors: 2
[4]
  binding of phage encoding the peptide within tumor models: bound within the melanoma, lung carcinoma, and glioma tumor models

## NSV (Artificial peptide ligand number 10) [conserved motif within recovered peptides]
[1]
  Frequency of Recovery: 22%

## NSVGSRV (Artificial peptide ligand number 4)
[2]
  Phage Recovered from LLC tumors (Frequency): 4%
  Number of Phage Recovered from LLC tumors: 1
[3]
  Phage Recovered from GL261 tumors (Frequency): 12%
  Number of Phage Recovered from GL261 tumors: 3
[4]
  binding of phage encoding the peptide within tumor models: bound within lung carcinoma and glioma

## NSVRGSGSGV (Artificial peptide ligand number 3)
[2]
  Phage Recovered from LLC tumors (Frequency): 28%
  Number of Phage Recovered from LLC tumors: 7
[3]
  Number of Phage Recovered from GL261 tumors: 0
[4]
  binding of phage encoding the peptide within tumor models: bound within glioma and melanoma

## NSXR [conserved motif within recovered peptides]
[1]
  Frequency of Recovery: 32%

## NSXRGXGS [conserved motif within recovered peptides]
[1]
  Frequency of Recovery: 32%

## NXVG [conserved motif within recovered peptides]
[1]
  Frequency of Recovery: 46%

## RGDGSSV (Artificial peptide ligand number 6)
[1]; mouse, in vivo
  share of peptide sequences recovered from 6 irradiated tumors having the subsequence: 18%

B1: SEQ ID NO: 24: scFv antibody encoded by SEQ ID NO: 23 (protein)
scFv: MAQVKLQQSGPELVKPGASVKMSCKASGYTFTSYVMHWVKQSNGKSLEWIGTIDPYYGGTSYNQKFKGKATLTVDKSSTTAYIQLKSLTSEDSAVYYCARWDGYYGGFSYWGQGTMVTVSSGGGGSGGGGSGGGGSDIELTQSPAIMSATLGEKVTMSCRASSNVKYMYWYQQKSGASPKLWIYYTSNLASGVPARFSGSGSGTSYSLTISSVEAEDAATYYCQQFTSSPYTFGSGTKLEIKRAAAGAPVPYPDPLEPRAA
modifications: nucleic acid encoding scFv antibody 10A
[5]
  neoantigen recognition: recognize the radiation-inducible neoantigens P-selectin and platelet membrane glycoprotein IIB

B2: SEQ ID NO: 20: scFv antibody encoded by SEQ ID NO: 19 (protein)
scFv: MAQVKLQQSGPELVKPGASVKMSCKASGYTFTSYVMHWVKQKPGQGLEWIGYINPYNDGTKYNEKFKGKAALTSDKSSSTAYMELSSLTSEDSAVYYCARFGNYGALDYWGQGTTVTVSSGGGGSGGGGSGGGGSDIELTQSPTIMSASPGEKVTITCSASSSVSYMHWFQQKPGTSPKPWIYGTSNLASGVPVRFSGSGSGTSYSLTISSMEAEDAATYYCQQWSSYPLTFGGGTKLEIKR
modifications: Artificial antibody ligand number 2
[5]
  neoantigen recognition: recognize the radiation-inducible neoantigens P-selectin and platelet membrane glycoprotein IIB

B3: SEQ ID NO: 18: scFv antibody encoded by SEQ ID NO: 17 (protein)
scFv: MAQVKLQQSGAELVMPGASVKMSCKASGYTFTDYWMHWVKQRPGQGLEWIGAIDTSDSYTSYNQKFKGKATLTVDESSSTAYMQLSSLTSEDSAVYYCARRGYYSAFDYWGQGTTVTVSSGGGGSGGGGSGGGGSDIELTQSPTTMAASPGEKVTITCRASSSVSYMHWFQQKSGTSPKPWIYDTSKLASGVPDRFSGSGSGTSYSLTISSMEAEDAATYYCLQRSSYPYTFGAGTKLEIKR
modifications: Artificial antibody ligand number 1
[5]
  neoantigen recognition: recognize the radiation-inducible neoantigens P-selectin and platelet membrane glycoprotein IIB

B4: SEQ ID NO: 22: scFv antibody encoded by SEQ ID NO: 21 (protein)
scFv: MAQVQLQESGPGLVKPSQSLSLTCSVTGYSITSNYWGWIRKFPGNKMEWMGYISYSGSTSYNPSLKSRISITRDTSKNQLFLQLNSVTTEDTATYYCARYSLFNYGRRDYVMDAWGQGTTVTVSSGGGGSGGGGSGGGGSDIELTQSPATMAASPGEKVTITCRASSTVSYMHWFQQKPGASPKPWIYDTSKLASGVPDRFSGSGSGTDFTLTIDPVQADDIATYYCQQSKDDPRTFGGGTKLELKRRPQVRRCRIRIRWNRVPH
modifications: Nucleic acid encoding scFv antibody 4A
[5]
  neoantigen recognition: recognize the radiation-inducible neoantigens P-selectin and platelet membrane glycoprotein IIB
